The source of these data is patent US12558326B2, “Method for treating epilepsy” (Xenon Pharmaceuticals Inc., priority 2018, dated 2026).

Values joined by “and” are separate entries in the source; they are usually repeats but may differ in a detail not shown here. Equal entries are not always repeated.

Series [1] relates to CF-1 mice. The series is described as follows: 6 Hz seizure test (44 mA, 3 sec, corneal electrodes) in vivo. Further details: species or system mouse. The settings on record: 20 mg/kg IP; for percentage of animals protected against psychomotor seizures: one hour before assay, 6 Hz 44 mA, n=16 per group. The source says:
This assay tests the ability of a test compound to block a psychomotor seizure induced by long-duration, low frequency (6 Hz) stimulation, and provides an art-accepted model of therapy-resistant partial seizure (Brown et al., 1953 J. Pharmacol. Exp. Therapeut. 107(3):273-283; White H S, Woodhead J H, Wilcox K S, General principles: discovery and preclinical development of antiepileptic drugs, In: Levy R H, Mattson R H, Meldrum B S, Perucca E, editors. Antiepileptic drugs 5th ed Philadelphia: Lippincott Williams & Wilkins; 2002. pp. 36-48; Hartman et al., 2008 Epilepsia 49(2):334-339).
Methods. Adult male CF1 mice (18-25 g) are pretreated intraperitoneally (i.p.) with the test compound at a dose of 20-100 mg/kg. If toxicity is noted in a pre-test screen for toxic effects when the test compound is administered i.p. at varying dosages, the dose is modified to avoid overt toxic effects. Each treatment group (n=4-16 mice/group) is examined for anticonvulsive effects at one or more of five time points (¼, ½, 1, 2, and 4 hr) after treatment with the test compound. Following pretreatment, each mouse receives a drop of 0.5% tetracaine hydrochloride applied to each eye. The mouse is then challenged with low-frequency (6 Hz) stimulation for 3 sec delivered through corneal electrodes. The low-frequency, long-duration stimuli are initially delivered at 32 mA intensity. Animals are manually restrained and released immediately following the stimulation and observed for the presence or absence of seizure activity. If the test compound is effective in the 32 mA screen, an additional assay is performed in which the stimulation current is increased to 44 mA but otherwise using the same protocol as described above. For dose-response studies, an n of 8 mice is used per dose and a dose-response curve is generated at the time of peak effect (TPE) at the specific stimulation intensity.
Typically, the 6 Hz stimulation results in a seizure characterized by a minimal clonic phase that is followed by stereotyped, automatistic behaviors, including jaw clonus, forelimb clonus, twitching of the vibrissae, and/or Straub-tail. Animals not displaying such behaviors are considered protected. Seizure score can be used as an additional measure of the efficacy of the investigational compound (Racine, R. J. 1972 Electroencephalogr. Clin. Neurophysiol. 32(3):281-294). Data are analyzed by Mann-Whitney U test, with p<0.05 determined to be statistically significant. For data obtained at each time point, results are expressed as the total number of animals protected out of the number of animals tested over time (e.g., 2/4 represents 2 out of 4 mice tested are protected).
In this Example, the in vivo anticonvulsant effects of candidate AEDs were tested in mice using the 6 Hz seizure test. The 6 Hz seizure test was performed essentially as described above in Biological Example 2, with minor modifications as presented here, including data collection at a time point that was one hour after administration of the candidate AEDs.
Compounds: Candidate AED compounds were prepared as described above unless otherwise noted, and were as follows: • Racemic fenfluramine ([rac]-fenfluramine hydrochloride); • (R)-fenfluramine ([R]-(−)-fenfluramine hydrochloride); • Racemic norfenfluramine ([rac]-norfenfluramine) was purchased from Toronto Research Chemicals, North York, Ontario, Canada; • (R)-norfenfluramine ([R]-(−)-norfenfluramine.
Animals: Adult male CF-1 albino mice (25-35 g) purchased from Harlan-Envigo (East Millstone, NJ). The mice were housed four per cage and had access to filtered water and chow ad libitum, throughout the experiment.
Compound Preparation and Administration: All four compounds were solubilized in sterile aqueous saline solution (0.9% NaCl). Compounds were administered to animals (16 mice in each treatment group) via intraperitoneal (IP) injection at 10 ml/kg volume, one hour prior to the assay. Control animals received vehicle (saline) only. […]

Series [2] can be described thus: Brain and plasma distribution after the 6 Hz assay (UHPLC-ESI-MS/MS). Particulars: 20 mg/kg IP, total concentration, sampled immediately after 6 Hz assay (one hour post dose). It is filed as in vivo, mouse. The protocol: Pharmacological distribution and bioanalysis. Immediately following characterization of seizure behaviors in the 6 Hz assay, animals were humanely sacrificed and brain and plasma samples were collected for analysis of the distribution of the administered compounds to these tissue compartments.
Brain sample homogenization. Pre-weighed whole mouse brains were thawed and 1 mL of deionized water and 1 mL of acetonitrile were added to each sample vial containing brain tissue. The samples were homogenized using a hand-held Omni™ TH homogenizer (Omni International, Kennesaw, GA, USA) until a uniform slurry was obtained. 1 mL aliquots of the slurry were transferred to clean 1.5 mL plastic Eppendorf tubes and the tubes were centrifuged at 13,000 rpm (15,871×g) for 20 minutes. The supernatant was collected and stored in clean labelled plastic Eppendorf vials at −80° C.
Mouse plasma and brain homogenate sample preparation. Mouse brain homogenates and mouse plasma samples, as well as calibration standards and QC samples prepared from control (“blank”) untreated mouse plasma, were extracted by protein precipitation. Briefly, 50 μL of each brain homogenate and mouse plasma sample (as well as each calibration standard, QC sample and blank mouse plasma sample) was mixed with 50 μL of internal standard solution [a 2,500 ng/mL solution of (S)-5-((1-benzylpyrrolidin-3-yl)(methyl)amino)-6-methyl-N-(thiazol-4-yl)pyridine-2-sulfonamide in deionized water/acetonitrile (1:1 v/v)], followed by addition of 50 μL of 6% (v/v) phosphoric acid in water. This was followed by the addition of 200 μL of acetonitrile. The samples were vortexed for 30 seconds and then centrifuged for 20 min at 13,000 rpm (15,871×g). The supernatants were further diluted four-fold with acetonitrile:water (1:1 v/v) and transferred to a 96-well plate prior to analysis. Calibration and QC samples were prepared in blank K2EDTA mouse plasma in the concentration range from 2.3 ng/mL to 4800 ng/mL with QC samples, including low QC (14 ng/mL), mid QC (225 ng/mL), and high QC (3600 ng/mL).
UHPLC-ESI-MS/MS analysis. Samples were then analyzed by ultra-high pressure liquid chromatography/electrospray ionization tandem mass spectroscopy (UHPLC-ESI MS/MS) using a Sciex™ TQ-5500 (AB Sciex™ LP, Concord, ON, Canada) mass spectrometer equipped with a Shimadzu Nexera™ UHPLC pump, column compartment and auto-sampler (Shimadzu Scientific Instruments, Inc., Columbia, MD, USA), using a binary gradient elution starting with 80% water (A)/20% acetonitrile (B), both solvents containing 0.1% formic acid. After 0.6 minutes, mobile phase B was increased linearly to 100% to 1 minute and elution was maintained at 100% mobile phase B until 1.5 minutes, and then allowed to re-equilibrate at the initial ration of 80% mobile phase A and 20% mobile phase B for a total run time of 2.5 minutes at a flow rate of 0.4 mL/min. The column used was ACE Excel™ 2 C18-PFP (2.1 mm i.d.×[…], 2 μm particle size)(Advanced Chromatography Technologies Ltd, Aberdeen, Scotland). The analytes and the internal standard were ionized by electrospray in the positive ion mode and detected by multiple reaction monitoring (MRM) using the transitions listed in Table 1.

As for `CCNC(C)Cc1cccc(C(F)(F)F)c1` (racemic) [(rac)-fenfluramine, (R/S)—N-ethyl-1-(3-(trifluoromethyl)phenyl)propan-2-amine], the “percentage of animals protected against psychomotor seizures” value in series [1] stood at 37.5%. Besides, the “protective activity against seizures in the 6 Hz psychomotor seizure assay” value in series [1] (summary statement) is on record as “exhibited protective activity against seizures”. In addition, in series [2], the Brain concentration was 146.5 μM and 33870 ng/g; the Plasma concentration is 10.74 μM and 2484 ng/g.
Consider `CCN[C@H](C)Cc1cccc(C(F)(F)F)c1` [(R)-fenfluramine, (R)—N-ethyl-1-(3-(trifluoromethyl)phenyl)propan-2-amine], for which the “percentage of animals protected against psychomotor seizures” value in series [1] was determined as 31.3%. For the same compound, in series [2], the Brain concentration is 193.7 μM and 44797 ng/g; the Plasma concentration is 15.02 μM and 3474 ng/g.
